US20260306502A1, “MITOCHONDRIAL UNCOUPLERS FOR TREATMENT OF METABOLIC DISEASES AND CANCER” (Mito Biopharma, LLC, priority 2022, published 2026)
“Also recorded” adds a separate entry of the source.

Assays:
[1] = PO pharmacokinetic study, oral exposure (Example B3); type: in vivo; settings: for AUC at 24 h: blood, po, 10 mg/kg gavage; for oral absorption, systemic exposure: in words
Method: The blood concentration of the compound was then determined at 0 (pre-dosing), 5 min, 15 min, 30 min, 1 hr, 2 hr, 4 hr, 8 hr, 24 hr time points by LC-MS/MS analysis (See Tables 1 and 2, vide supra).

[2] = tested on: HFD-induced diabetic mouse model and db/db mouse model; assay: Efficacy in HFD-induced diabetic and db/db mouse models; type: in vivo; settings: for reducing blood glucose, blood insulin, and glycated HbA1c: 5 mg/kg once daily PO, db/db and HFD mice; for minimal effective dose: Mus musculus, both HFD and db/db models, oral daily gavage, read-out: Efficacious dosage to reduce blood glucose in mouse models, oral daily gavage
Method: (§1) For HFD induced diabetic mouse model, C57Bl6 mice (male, n=6) were induced to obese and diabetic conditions by feeding high-fat diet (HFD, 60% fat calories, Research Diet, Inc. New Brunswick, NJ) for 3-4 months. […] During the 3-week period, the mice continued feeding HFD. […] The blood glucose levels were measured after an overnight fast, plasma insulin levels were tested after 5-6 hours fast, and the glycated HbA1c levels were determined in whole blood samples.
(§2) Experiments were similarly performed with other compounds, in either high-fat diet induced diabetes and fatty liver models, or in db/db mouse model, or in both, by daily oral gavage administration with low dosages.

C2C12 cells = assay: Mitochondrial uncoupling activity by oxygen consumption rate (OCR) assay, Seahorse, in presence of oligomycin; type: cell-based, mouse; settings: for minimal effective concentration: Mus musculus, C2C12, in the presence of oligomycin 2.5 μM, read-out: COCR-min: minimal concentration increasing OCR in the presence of oligomycin; for effect on oxygen consumption rate (OCR): in words
Summary of the method: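 Mouse C2C12 myoblasts grown in 10% FBS medium had OCR measured on Seahorse XF96/XF24 sequentially: basal, after 2.5 μM oligomycin (final), then after compound at varying concentrations. Rotenone/antimycin A confirmed mitochondrial origin. COCR-min is the minimal compound concentration inducing OCR in the presence of oligomycin.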

[3] = tested on: high-fat diet (HFD)-induced diabetic mouse model; assay: Efficacy in high-fat diet (HFD)-induced diabetic/fatty liver mouse model; type: in vivo; settings: HFD mice, 3 weeks; for reversing fatty liver (liver steatosis, H&E histology): 5 mg/kg PO daily
Method: as §1
FIG. 15C and FIG. 15D show liver sections from mice fed HFD following 3 weeks of treatment with Compounds 25 and 64, respectively (P.O. dosing of 5 mg/kg, by daily gavage).
as §2

CD-1 mice = assay: Short-term (10-day) escalating toxicology study in CD-1 mice; type: in vivo, mouse; settings: in words
Method: (§3) Clinical signs, body weights, food consumptions, rectal temperature, hematology, serum chemistry, plasma exposure, necropsies, tissue histopathology, were examined.
(§4) The compound was administered as a homogeneous suspension in 0.5% CMC+1% Tween80 in water in a volume of 10 mL/kg for oral administration. There were two arms in the study: 5 mice in the toxicology group and 5 mice in the toxicokinetic (TK) satellite group. Clinical signs were recorded twice daily. Body weight and food consumption were recorded once daily. Rectal temperature was recorded once every two days for a total of 5 times throughout the study. Necropsies were conducted at the termination of the study. Hematology, serum chemistry, plasma exposure, and tissue distribution were evaluated post 10th dosing in the TK satellite animals. Histopathology was examined in selected organs/tissues. Based on the outcomes of the toxicology parameters, NOAEL (no-observable-adverse-effect-level) and MTD (maximal tolerable dose) were determined.

[4] = as above; type: in vivo, mouse; settings: mouse, in vivo; oral gavage once daily, 10 days, male CD-1 mice; read-out: NOAEL (no-observable-adverse-effect-level)
Method: as §3, §4

C57Bl6 mice = assay: Determination of acute toxicity; settings: in words
Method: Acute toxicity tests were performed on C57Bl6 mice, male, 6 weeks old, n=6. […] The tests were performed under fed condition, by oral gavage of 100-400 μL compound suspension according to the body weight to desired dosages (mg/kg). The mice were supplied with drinking water all through the testing time. […] MED was determined in diabetic and steatosis mouse models (Table 9).
Acute toxicity tests were performed on C57Bl6 mice, male, 6 weeks old, n=6 for each dose. […] The tests were performed under fed condition, by oral gavage of 100-400 μL compound suspension according to the body weight to desired dosages (mg/kg). The mice were supplied with drinking water all through the testing time. Mouse behaviors were monitored every 15-30 minutes.

[5] = tested on: LX-2 cells (human hepatic stellate cells); assay: Inhibition of TGFβ-induced hepatic stellate cell differentiation into myofibroblast-like cells; type: cell-based; settings: TGFβ 10 ng/ml; for minimal effective concentration: Homo sapiens, LX-2, hepatic stellate cell differentiation to myofibroblast-like cells, 24 hours, read-out: Minimal inhibitory concentration; for inhibition of TGFβ-induced hepatic stellate cell differentiation: in words
Method: Liver fibrosis is one hallmark of NASH. […] This process could be modeled in vitro using the hepatic stellate differentiation experiment. The human hepatic stellate LX-2 cells were cultured within DMEM (Dulbecco's Modified Eagle Media, pH 7.4) supplied with 2% fetal bovine serum, 4.5 g/l glucose and 2 mM glutamine to 100 percent confluence. […] Cellular morphology was then examined under a microscope. As shown in FIG. 16 to FIG. 17, hepatic stellate cells could be induced by TGF-beta to differentiate into myofibroblast-like cells.

COCCOCc1cc(C(F)(F)F)cc2sc(NC(=O)c3cc(Cl)cc(CN4C[C@@H](C)O[C@@H](C)C4)c3O)nc12 [Compound 64, 5-chloro-3-((cis-2,6-dimethylmorpholino)methyl)-2-hydroxy-N-(4-((2-methoxyethoxy)methyl)-6-(trifluoromethyl)benzo[d]thiazol-2-yl)benzamide]
AUC at 24 h [1]: 10000 to 30000 ng·h/mL
oral absorption, systemic exposure [1]: excellent
reducing blood glucose, blood insulin, and glycated HbA1c [2]: highly efficacious
minimal effective dose [2]: 1 to 2.5 mg/kg
minimal effective concentration (C2C12 cells): < 5 µM
effect on oxygen consumption rate (OCR) (C2C12 cells): increases OCR
reversing fatty liver (liver steatosis, H&E histology) [3]: highly efficacious in reversing fatty liver
short-term safety profile over DNP (CD-1 mice): drastically improved short-term safety profiles
NOAEL at 240 h [4]: 40 mg/kg/day
acute toxicity profile over DNP (C57Bl6 mice): drastically improved acute toxicity profiles over DNP
minimal effective concentration [5]: 1 µM
inhibition of TGFβ-induced hepatic stellate cell differentiation [5]: effectively inhibit the differentiation process; also recorded: able to directly inhibit hepatic stellate cell (HSC) activation in vitro
inhibition of TGFβ-induced hepatic stellate cell differentiation ([5]; listed as Compound64): prevents TGFβ-induced differentiation of LX-2 cells

COCCN(CCOC)Cc1cc(Cl)cc(C(=O)Nc2nc3ccc(C(F)(F)F)cc3s2)c1O [Compound 25, 3-((bis(2-methoxyethyl)amino)methyl)-5-chloro-2-hydroxy-N-(6-(trifluoromethyl)benzo[d]thiazol-2-yl)benzamide]
AUC at 24 h [1]: 10000 to 30000 ng·h/mL
oral absorption, systemic exposure [1]: excellent
reducing blood glucose, blood insulin, and glycated HbA1c [2]: highly efficacious
minimal effective dose [2]: 2.5 mg/kg
minimal effective concentration (C2C12 cells): < 5 µM
effect on oxygen consumption rate (OCR) (C2C12 cells): very robust OCR induction at 3.0, 6.0, and 9.0 μM; also recorded: effectively uncouples mitochondria (induces OCR
reversing fatty liver (liver steatosis, H&E histology) [3]: highly efficacious in reversing fatty liver
reducing blood triglyceride levels and non-HDL cholesterol levels ([3]; 5 mg/kg/day gavage): efficacious
short-term safety profile over DNP (CD-1 mice): drastically improved short-term safety profiles
NOAEL at 240 h [4]: 50 mg/kg/day
acute toxicity profile over DNP (C57Bl6 mice): drastically improved acute toxicity profiles over DNP
minimal effective concentration [5]: 7.5 µM
inhibition of TGFβ-induced hepatic stellate cell differentiation [5]: effectively inhibit the differentiation process; also recorded: prevents TGFβ-induced differentiation of LX-2 cells
inhibition of TGFβ-induced hepatic stellate cell differentiation ([5]; listed as Compounds 25): able to directly inhibit hepatic stellate cell (HSC) activation in vitro
